Assay results as given in BindingDB's records for doi:10.1021/jm990236h (University of Michigan, 2000).

experiment: Antiviral activity was evaluated by Reverse transcriptase activity in cells acutely infected with HIV-1

| Structure (SMILES) | IC50 [nM] |
| --- | --- |
| CCCCCCCCCC(=O)NC1=NN(C)c2ncnc3c2c1cn3C1O[C@H](CO)[C@@H](O)[C@H]1O (stereo partly drawn) | 250 |
| CCCCCCCCC(=O)NC1=NN(C)c2ncnc3c2c1cn3C1O[C@H](CO)[C@@H](O)[C@H]1O (stereo partly drawn) | 800 |
| CCCCCCCCCCCC(=O)NC1=NN(C)c2ncnc3c2c1cn3C1O[C@H](CO)[C@@H](O)[C@H]1O (stereo partly drawn) | 1000 |
| CCCCCCCC(=O)NC1=NN(C)c2ncnc3c2c1cn3C1O[C@H](CO)[C@@H](O)[C@H]1O (stereo partly drawn) | 100 |

experiment: Antiviral activity was evaluated by RT (reverse transcriptase) activity in cells acutely infected with HIV-1

| Structure (SMILES) | IC50 [nM] |
| --- | --- |
| CN1N=C(NC(=O)c2ccccc2)c2cn(C3O[C@H](CO)[C@@H](O)[C@H]3O)c3ncnc1c23 (stereo partly drawn) | > 100000 |
| CC(C)C(=O)NC1=NN(C)c2ncnc3c2c1cn3C1O[C@H](CO)[C@@H](O)[C@H]1O (stereo partly drawn) | 8000 |
| CCCCCC(=O)NC1=NN(C)c2ncnc3c2c1cn3C1O[C@H](CO)[C@@H](O)[C@H]1O (stereo partly drawn) | 350 |
| CCCC(=O)NC1=NN(C)c2ncnc3c2c1cn3C1O[C@H](CO)[C@@H](O)[C@H]1O (stereo partly drawn) | 500 |
| CCC(=O)NC1=NN(C)c2ncnc3c2c1cn3C1O[C@H](CO)[C@@H](O)[C@H]1O (stereo partly drawn) | 8400 |
| CC(=O)NC1=NN(C)c2ncnc3c2c1cn3C1O[C@H](CO)[C@@H](O)[C@H]1O (stereo partly drawn) | 6800 |
| CCCCC(=O)NC1=NN(C)c2ncnc3c2c1cn3C1O[C@H](CO)[C@@H](O)[C@H]1O (stereo partly drawn) | 800 |
| CCCCCCC(=O)NC1=NN(C)c2ncnc3c2c1cn3C1O[C@H](CO)[C@@H](O)[C@H]1O (stereo partly drawn) | 35 |
| CN1N=C(NC(=O)C(C)(C)C)c2cn(C3O[C@H](CO)[C@@H](O)[C@H]3O)c3ncnc1c23 (stereo partly drawn) | > 100000 |
